Patent US6872720B2 (dated 2005)

| SMILES | melting point [°C] |
| --- | --- |
| Cc1nnc(-c2ccccc2F)n2nc(OCc3ncnn3C)c(-c3ccsc3)c12 | 124 to 129 |
| Cc1nnc(-c2ccccc2F)n2nc(OCc3ncnn3C)c(-c3ccoc3)c12 | 150 to 153 |
| Cc1nnc(-c2ccccc2F)n2nc(OCc3ncn(C)n3)c(-c3ccsc3)c12 | 214 to 217 |
| Cc1nnc(-c2ccc(F)cc2)n2nc(OCc3ncnn3C)c(-c3ccsc3)c12 | 171 to 177 |
| Cc1nnc(-c2ccc(F)cc2F)n2nc(OCc3ncnn3C)c(-c3ccsc3)c12 | 144 to 146 |
| CCn1ncnc1COc1nn2c(-c3ccccc3F)nnc(C)c2c1C1CCCC1 | 105 |
| Cc1nnc(-c2ccccc2F)n2nc(OCc3ncnn3C)c(C3CCCC3)c12 | 123 |
| CCn1ncnc1COc1nn2c(-c3ccccc3)nnc(C)c2c1C1CCCC1 | 112 |
| Cc1nnc(-c2ccccc2)n2nc(OCc3ncnn3C)c(C3CCCC3)c12 | 159 |
| CCn1ncnc1COc1nn2c(-c3cc(F)ccc3F)nnc(C)c2c1C(C)(C)C | 109 |
